Patent publication US20090018134A1, “Compounds - 945” (AstraZeneca AB, priority 2007, published 2009)

Target: T1, mTOR (Homo sapiens, UniProt P42345)
T1 construct: FLAG; made in house
Experiment: In Vitro mTOR Kinase Assay (Echo), Test (a)(ii)
Assay type: biochemical
Conditions: table of enzyme assay Test (a)(ii); read-out: Test (a)(ii) IC50
Method in brief: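 Inhibition expressed as IC50 from an AlphaScreen read-out: phospho-T389 p70 S6K antibody plus streptavidin donor/protein A acceptor beads, left overnight in the dark. The kinase reaction ran 2 h at room temperature, then was stopped with EDTA. Enzyme: FLAG-purified mTOR 1362-2549 fragment from stable HEK293 cells.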

T1 sequence (P42345 1362-2549): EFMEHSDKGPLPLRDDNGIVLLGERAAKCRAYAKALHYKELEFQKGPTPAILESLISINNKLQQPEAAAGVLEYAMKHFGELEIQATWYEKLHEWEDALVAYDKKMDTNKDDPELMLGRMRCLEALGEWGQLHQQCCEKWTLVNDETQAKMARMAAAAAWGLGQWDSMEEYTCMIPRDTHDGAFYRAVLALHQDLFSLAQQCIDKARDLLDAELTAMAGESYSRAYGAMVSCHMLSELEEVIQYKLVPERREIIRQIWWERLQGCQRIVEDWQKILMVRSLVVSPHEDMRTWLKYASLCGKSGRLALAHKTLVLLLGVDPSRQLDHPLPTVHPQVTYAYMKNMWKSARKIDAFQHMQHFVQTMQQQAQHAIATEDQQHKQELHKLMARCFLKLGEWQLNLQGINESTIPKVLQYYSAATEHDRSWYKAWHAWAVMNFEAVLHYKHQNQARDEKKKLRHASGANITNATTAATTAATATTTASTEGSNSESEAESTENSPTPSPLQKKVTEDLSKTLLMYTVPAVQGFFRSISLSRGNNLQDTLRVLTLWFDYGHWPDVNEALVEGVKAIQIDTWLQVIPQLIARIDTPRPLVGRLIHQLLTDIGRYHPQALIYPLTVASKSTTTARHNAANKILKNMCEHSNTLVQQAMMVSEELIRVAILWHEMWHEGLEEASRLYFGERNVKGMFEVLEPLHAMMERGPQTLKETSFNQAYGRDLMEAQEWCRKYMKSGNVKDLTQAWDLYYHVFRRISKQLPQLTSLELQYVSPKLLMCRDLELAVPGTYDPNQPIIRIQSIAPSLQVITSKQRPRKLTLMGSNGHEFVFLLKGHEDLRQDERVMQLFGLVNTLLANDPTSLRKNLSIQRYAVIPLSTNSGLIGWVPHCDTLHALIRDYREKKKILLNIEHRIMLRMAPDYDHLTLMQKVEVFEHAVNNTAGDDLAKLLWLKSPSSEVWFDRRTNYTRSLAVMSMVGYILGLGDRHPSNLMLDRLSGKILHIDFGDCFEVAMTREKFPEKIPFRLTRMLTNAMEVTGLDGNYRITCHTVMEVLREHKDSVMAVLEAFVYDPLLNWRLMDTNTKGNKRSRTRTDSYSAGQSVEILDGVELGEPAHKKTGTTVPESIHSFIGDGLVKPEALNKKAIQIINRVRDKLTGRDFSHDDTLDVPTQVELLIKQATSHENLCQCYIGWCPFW

Point of comparison: `CNC(=O)Nc1ccc(-c2nc(N3CCOC[C@@H]3C)cc(C3(S(=O)(=O)c4c(C)noc4C)CC3)n2)cc1` [Example 59], IC50 8.82 nM. Against it:
- C[C@H]1COCCN1c1cc(C2(S(=O)(=O)c3ccccc3F)CC2)nc(-c2ccc(NC(=O)NCC(F)F)cc2)n1 [Example 58d, 3-(2,2-difluoroethyl)-1-[4-[4-[1-(2-fluorophenyl)sulfonylcyclopropyl]-6-[(3S)-3-methylmorpholin-4-yl]pyrimidin-2-yl]phenyl]urea] — 3-fold lower, 2.93 nM
- CCNC(=O)Nc1ccc(-c2nc(N3CCOC[C@@H]3C)cc(C3(S(=O)(=O)c4ccccc4F)CC3)n2)cc1 [Example 58e, 1-ethyl-3-[4-[4-[1-(2-fluorophenyl)sulfonylcyclopropyl]-6-[(3S)-3-methylmorpholin-4-yl]pyrimidin-2-yl]phenyl]urea] — 3.4-fold lower, 2.56 nM
- C[C@H]1COCCN1c1cc(C2(S(=O)(=O)c3ccccc3F)CC2)nc(-c2ccc(NC(=O)Nc3cnn(C)c3)cc2)n1 [Example 58f, 1-[4-[4-[1-(2-fluorophenyl)sulfonylcyclopropyl]-6-[(3S)-3-methylmorpholin-4-yl]pyrimidin-2-yl]phenyl]-3-(1-methylpyrazol-4-yl)urea] — 3.3-fold lower, 2.67 nM
- C[C@H]1COCCN1c1cc(C2(S(=O)(=O)c3ccccc3F)CC2)nc(-c2ccc(NC(=O)NCC3(O)CC3)cc2)n1 [Example 58g, 1-[4-[4-[1-(2-fluorophenyl)sulfonylcyclopropyl]-6-[(3S)-3-methylmorpholin-4-yl]pyrimidin-2-yl]phenyl]-3-[(1-hydroxycyclopropyl)methyl]urea] — within 1.5-fold, 10.2 nM
- Cc1noc(C)c1S(=O)(=O)C1(c2cc(N3CCOC[C@@H]3C)nc(-c3ccc(NC(=O)NC4CC4)cc3)n2)CC1 [Example 59a, 3-cyclopropyl-1-[4-[4-[1-[(3,5-dimethyl-1,2-oxazol-4-yl)sulfonyl]cyclopropyl]-6-[(3S)-3-methylmorpholin-4-yl]pyrimidin-2-yl]phenyl]urea] — 2.5-fold higher, 22.2 nM
- Cc1noc(C)c1S(=O)(=O)C1(c2cc(N3CCOC[C@@H]3C)nc(-c3ccc(NC(=O)NCCO)cc3)n2)CC1 [Example 59b, 1-[4-[4-[1-[(3,5-dimethyl-1,2-oxazol-4-yl)sulfonyl]cyclopropyl]-6-[(3S)-3-methylmorpholin-4-yl]pyrimidin-2-yl]phenyl]-3-(2-hydroxyethyl)urea] — within 1.5-fold, 9.93 nM
- Cc1noc(C)c1S(=O)(=O)C1(c2cc(N3CCOC[C@@H]3C)nc(-c3ccc(NC(=O)NCCF)cc3)n2)CC1 [Example 59c, 1-[4-[4-[1-[(3,5-dimethyl-1,2-oxazol-4-yl)sulfonyl]cyclopropyl]-6-[(3S)-3-methylmorpholin-4-yl]pyrimidin-2-yl]phenyl]-3-(2-fluoroethyl)urea] — 2.6-fold higher, 22.6 nM
- Cc1noc(C)c1S(=O)(=O)C1(c2cc(N3CCOC[C@@H]3C)nc(-c3ccc(NC(=O)NCC(F)F)cc3)n2)CC1 [Example 59d, 3-(2,2-difluoroethyl)-1-[4-[4-[1-[(3,5-dimethyl-1,2-oxazol-4-yl)sulfonyl]cyclopropyl]-6-[(3S)-3-methylmorpholin-4-yl]pyrimidin-2-yl]phenyl]urea] — 3.6-fold higher, 32 nM
- Cc1noc(C)c1S(=O)(=O)C1(c2cc(N3CCOC[C@@H]3C)nc(-c3ccc(NC(=O)NCC4(O)CC4)cc3)n2)CC1 [Example 59e, 1-[4-[4-[1-[(3,5-dimethyl-1,2-oxazol-4-yl)sulfonyl]cyclopropyl]-6-[(3S)-3-methylmorpholin-4-yl]pyrimidin-2-yl]phenyl]-3-[(1-hydroxycyclopropyl)methyl]urea] — 33-fold higher, 293 nM
- CCNC(=O)Nc1ccc(-c2nc(N3CCOC[C@@H]3C)cc(C3(S(=O)(=O)c4c(C)noc4C)CC3)n2)cc1 [Example 59f, 3-[4-[4-[1-[(3,5-dimethyl-1,2-oxazol-4-yl)sulfonyl]cyclopropyl]-6-[(3S)-3-methylmorpholin-4-yl]pyrimidin-2-yl]phenyl]-1-ethylurea] — 5.6-fold higher, 49.1 nM
